Experiment [1] has as its target T1, M-phase inducer phosphatase 1 (Homo sapiens, UniProt P30304).
T1 sequence (P30304 whole entry): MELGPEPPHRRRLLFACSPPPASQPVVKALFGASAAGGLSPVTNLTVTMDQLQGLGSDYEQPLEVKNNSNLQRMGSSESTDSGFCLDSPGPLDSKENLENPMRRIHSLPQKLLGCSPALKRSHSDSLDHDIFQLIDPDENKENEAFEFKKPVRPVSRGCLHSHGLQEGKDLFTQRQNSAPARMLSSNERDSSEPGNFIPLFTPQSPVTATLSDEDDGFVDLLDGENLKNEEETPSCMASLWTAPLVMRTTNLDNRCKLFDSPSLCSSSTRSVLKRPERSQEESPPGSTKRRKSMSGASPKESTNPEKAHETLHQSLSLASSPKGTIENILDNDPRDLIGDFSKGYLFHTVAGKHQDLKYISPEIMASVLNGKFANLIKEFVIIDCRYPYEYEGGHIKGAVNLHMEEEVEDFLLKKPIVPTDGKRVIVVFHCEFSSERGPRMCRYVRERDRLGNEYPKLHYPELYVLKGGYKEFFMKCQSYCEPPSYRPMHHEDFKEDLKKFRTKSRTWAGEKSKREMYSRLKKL
Description: Concentration required for the inhibitory activity against human Cell division cycle 25A.

A further experiment deals with SBC-5. Kind of experiment: Inhibitory concentration required for antitumor activity against SBC-5 cells. The class given is functional, cell-based. To be noted: Homo sapiens.

Take `COC(=O)/C=C1\CCC[C@@]2(C)C1CC[C@@H]2[C@H](C)CCCC(C)C` (some centres not stated): the IC50 in experiment [1] is > 300 µM; with SBC-5, 71 µM.

As for `CC(C)CCC[C@@H](C)[C@H]1CCC2C(CCCC(=O)O)CCC[C@@]21C` (some centres not stated), the IC50 is 9 µM in experiment [1] and > 100 µM in the experiment on SBC-5.

As for `CC(C)CCC[C@@H](C)[C@H]1CCC2/C(=C/C=C/C(=O)O)CCC[C@@]21C` (some centres not stated), the IC50 amounted to 94 µM in experiment [1] and 42 µM in the experiment on SBC-5.

For `CC(C)CCC[C@@H](C)[C@H]1CCC2C(CC(=O)O)CCC[C@@]21C` (some centres not stated), the IC50 in experiment [1] was 32 µM; in the experiment on SBC-5, > 100 µM.

Consider `CC(C)CCC[C@@H](C)[C@H]1CCC2/C(=C/C(=O)O)CCC[C@@]21C` (some centres not stated), for which the figures for the IC50 (in experiment [1]; in the experiment on SBC-5) were 7.7 µM and 47 µM, respectively.

As for `COC(=O)CC1CCC[C@@]2(C)C1CC[C@@H]2[C@H](C)CCCC(C)C` (some centres not stated), the IC50 was > 300 µM in experiment [1] and 70 µM in the experiment on SBC-5.

For the origin of these results see ChEMBL document CHEMBL1133433, “Synthesis of a novel class of cdc25A inhibitors from vitamin D3” (Bioorg Med Chem Lett, 2000).
